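Briefly, cells in 96-well plates were exposed to five compound concentrations for 48 h, and endpoints were estimated by linear interpolation. GI50 is the concentration that inhibits growth by half.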 The source made the active and inactive calls. Cut-off read from the data, not from the text of the source: active = GI50 up to about 1.1 µM and inactive = higher.

Some test systems named below: SK-MEL-5; SF-268; 786-0; HCT-15; IGROV-1; LOX IMVI; SN12C; MDA-MB-435; K562; T47D; PC-3; BT-549; NCI-H460; SW-620; DU-145; UACC-62; A498; CCRF-CEM; A549; NCI/ADR-RES.
What all share (assay): inhibition of tumour cell growth, NCI panel, 48 h

For `COc1cc(C2SC(=N)Nc3c2c(C)nn3C(=O)Cc2ccccc2)ccc1O` (stereo not drawn), the GI50 in the experiment on SK-MEL-5 is > 100 µM (inactive); with SF-268, > 100 µM (inactive); in the experiment on 786-0, > 100 µM (inactive); with HCT-15, greater than 100 µM; in the experiment on IGROV-1 it was > 100 µM (inactive); with LOX IMVI, > 100 µM (inactive). Further, the GI50 in the experiment with SN12C, in the experiment on MDA-MB-435, in the experiment with K562, in the experiment with T47D, in the experiment with PC-3 and in the experiment with BT-549 was > 100 µM (inactive) in each case. For the same compound, the GI50 in the experiment on NCI-H460, with SW-620, with DU-145, with UACC-62, in the experiment with A498 and in the experiment with CCRF-CEM was > 100 µM (inactive) throughout. The GI50 with A549 is > 100 µM (inactive).

For `CC1=NN(C(=O)CSc2nnc(SCC(=O)N3N=C(C)CC3(O)c3ccccc3)s2)C(O)(c2ccccc2)C1` (stereo not drawn), the GI50 with SK-MEL-5 was 28.2 µM (inactive); in the experiment on SF-268, 12.8 µM (inactive); in the experiment with 786-0, 43.3 µM (inactive); in the experiment with HCT-15, 33.2 µM; in the experiment with IGROV-1 it was 25.1 µM (inactive); with LOX IMVI, 22.8 µM (inactive). The GI50 was 61.7 µM (inactive) in the experiment on SN12C; 51.3 µM (inactive) in the experiment with MDA-MB-435; 32.6 µM (inactive) in the experiment on K562; 34.5 µM (inactive) in the experiment with PC-3; 15.5 µM (inactive) in the experiment with BT-549; 27.6 µM (inactive) with NCI-H460. Further, the GI50 was 27.9 µM (inactive) in the experiment with NCI/ADR-RES; > 100 µM (inactive) in the experiment with SW-620; 35.5 µM (inactive) in the experiment with DU-145; 18.6 µM (inactive) with UACC-62; > 100 µM (inactive) in the experiment with A498; 18.7 µM (inactive) in the experiment with CCRF-CEM. Moreover, the GI50 in the experiment with A549 was 48.4 µM (inactive).

Regarding `S=c1nc(Nc2ccc(Cl)cc2)c2c3c(sc2[nH]1)CCCC3`, the GI50 in the experiment on SK-MEL-5 is > 100 µM (inactive); in the experiment with SF-268, > 100 µM (inactive); with 786-0, > 100 µM (inactive); with HCT-15, greater than 100 µM; with IGROV-1, > 100 µM (inactive); in the experiment with LOX IMVI, > 100 µM (inactive). For the same compound, the GI50 in the experiment on SN12C was > 100 µM (inactive); in the experiment on MDA-MB-435 it was > 100 µM (inactive); in the experiment on K562, 38.5 µM (inactive); in the experiment on PC-3, 57.7 µM (inactive); in the experiment with BT-549, > 100 µM (inactive); in the experiment with NCI-H460, > 100 µM (inactive). The GI50 with SW-620 was > 100 µM (inactive); in the experiment on DU-145, > 100 µM (inactive); with UACC-62, > 100 µM (inactive); in the experiment with A498, > 100 µM (inactive); in the experiment on CCRF-CEM, 36.2 µM (inactive).

As to `Nc1ncnc2c1nc(O)n2-c1ccccc1`, the GI50 is > 100 µM (inactive) in the experiment on SK-MEL-5; > 100 µM (inactive) in the experiment on SF-268; > 100 µM (inactive) with 786-0; greater than 100 µM with HCT-15; > 100 µM (inactive) in the experiment with IGROV-1; > 100 µM (inactive) with LOX IMVI. The GI50 in the experiment on SN12C, in the experiment with MDA-MB-435, with K562, in the experiment on PC-3, with BT-549 and in the experiment on NCI-H460 was > 100 µM (inactive) each time. The GI50 with NCI/ADR-RES, in the experiment with SW-620, in the experiment on UACC-62, in the experiment on A498 and in the experiment on A549 was > 100 µM (inactive) in each case.

For `C=CCC(SC)C1=C(C)C(=O)c2ccccc21` (stereo not drawn), the GI50 with SK-MEL-5 was > 10 µM (inactive); in the experiment with SF-268, > 10 µM (inactive); in the experiment with 786-0 it was > 10 µM (inactive); in the experiment with HCT-15 it was greater than 10 µM; in the experiment with IGROV-1, > 10 µM (inactive); in the experiment with LOX IMVI it was > 10 µM (inactive). The GI50 in the experiment with SN12C, in the experiment with MDA-MB-435, in the experiment on K562, in the experiment on T47D, in the experiment on PC-3 and in the experiment with BT-549 was > 10 µM (inactive) throughout. Moreover, the GI50 with NCI-H460 is > 10 µM (inactive); in the experiment on SW-620 it was > 10 µM (inactive); in the experiment on DU-145, > 10 µM (inactive); with UACC-62, > 10 µM (inactive); in the experiment on A498, > 10 µM (inactive); in the experiment on CCRF-CEM it was 6.55 µM (inactive). Further, in the experiment on A549, the GI50 was > 10 µM (inactive).

As to `Cc1c2n(c3ccccc13)S(=O)(=O)c1ccccc1-2`, the GI50 with SK-MEL-5 was 72.1 µM (inactive); in the experiment with 786-0, 10.1 µM (inactive); in the experiment on HCT-15 it was 48.1 µM; in the experiment with IGROV-1, 25.3 µM (inactive); in the experiment on LOX IMVI, 44.6 µM (inactive); in the experiment on MDA-MB-435, > 100 µM (inactive). Also, the GI50 with K562 was > 100 µM (inactive); with PC-3 it was 22.5 µM (inactive); with BT-549 it was 39.8 µM (inactive); with NCI-H460, 30.5 µM (inactive); with NCI/ADR-RES, 28.1 µM (inactive); in the experiment with SW-620, > 100 µM (inactive). Moreover, the GI50 is 47.2 µM (inactive) with DU-145; 28.1 µM (inactive) with UACC-62; 11 µM (inactive) with A498; > 100 µM (inactive) in the experiment with CCRF-CEM; 23.4 µM (inactive) with A549.

Turning to `Cc1cccc(C)c1NC(=O)/C=C/c1ccccc1`, the GI50 is > 100 µM (inactive) in the experiment with SK-MEL-5; > 100 µM (inactive) in the experiment with SF-268; > 100 µM (inactive) with 786-0; greater than 100 µM with HCT-15; > 100 µM (inactive) in the experiment on LOX IMVI; > 100 µM (inactive) in the experiment on SN12C. The GI50 in the experiment on MDA-MB-435, in the experiment with K562, in the experiment with T47D, with PC-3, with BT-549 and with NCI-H460 was > 100 µM (inactive) throughout. The GI50 in the experiment on SW-620, in the experiment with DU-145, in the experiment on UACC-62, in the experiment with A498, in the experiment on CCRF-CEM and in the experiment with A549 was > 100 µM (inactive) each time.

Regarding `O=c1c2ccccc2nc(N/N=C/c2ccccc2O)n1-c1ccccc1`, the GI50 is 4.56 µM (inactive) in the experiment with SK-MEL-5; 2.13 µM (inactive) in the experiment on SF-268; 1.53 µM (inactive) in the experiment on 786-0; 2.97 µM in the experiment on HCT-15; 5.6 µM (inactive) in the experiment on IGROV-1; 4.04 µM (inactive) in the experiment with LOX IMVI. For the same compound, the GI50 with SN12C is 6.24 µM (inactive); in the experiment with MDA-MB-435 it was 4.71 µM (inactive); in the experiment with K562, 4.5 µM (inactive); in the experiment with PC-3 it was 3.57 µM (inactive); in the experiment with BT-549, 41.5 µM (inactive); in the experiment on NCI-H460, 4.01 µM (inactive). Moreover, the GI50 in the experiment on NCI/ADR-RES was 2.27 µM (inactive); in the experiment with SW-620 it was 5.75 µM (inactive); with DU-145, 5 µM (inactive); in the experiment on UACC-62 it was 2.77 µM (inactive); with A498, > 100 µM (inactive); in the experiment with CCRF-CEM, 3.27 µM (inactive). The GI50 with A549 is 4.8 µM (inactive).

For the compound `CCCCCc1c(Cl)nc(Cl)nc1Cl`, the GI50 in the experiment with SK-MEL-5 was 5.81 µM (inactive); in the experiment with SF-268 it was 11.1 µM (inactive); with 786-0, 3.67 µM (inactive); in the experiment on HCT-15, 6.17 µM; in the experiment on IGROV-1, 7.05 µM (inactive); in the experiment with LOX IMVI, 0.471 µM (active). In addition, the GI50 with SN12C is 3.1 µM (inactive); in the experiment on MDA-MB-435, 2.76 µM (inactive); in the experiment with K562 it was 2.18 µM (inactive); in the experiment on T47D, 19.4 µM (inactive); with PC-3, 8.99 µM (inactive); with NCI-H460 it was 19.5 µM (inactive). Moreover, the GI50 was 12.1 µM (inactive) in the experiment on NCI/ADR-RES; 3.63 µM (inactive) in the experiment on SW-620; 21.7 µM (inactive) in the experiment with DU-145; 15.3 µM (inactive) in the experiment with UACC-62; 20.1 µM (inactive) in the experiment with A498; 0.195 µM (active) in the experiment with CCRF-CEM. In the experiment on A549, the GI50 was 39.7 µM (inactive).

On to `CCNCCNC(=O)c1ccc(I)cc1`, for which the GI50 in the experiment with SK-MEL-5 is > 100 µM (inactive); in the experiment with SF-268, > 100 µM (inactive); in the experiment with 786-0, > 100 µM (inactive); in the experiment with HCT-15, greater than 100 µM; in the experiment on IGROV-1, > 100 µM (inactive); in the experiment on LOX IMVI it was > 100 µM (inactive). Further, the GI50 in the experiment on SN12C, in the experiment with K562, with PC-3, in the experiment with BT-549, in the experiment on NCI-H460 and in the experiment on NCI/ADR-RES was > 100 µM (inactive) throughout. The GI50 in the experiment on SW-620, with UACC-62, with A498, in the experiment with CCRF-CEM and in the experiment on A549 was > 100 µM (inactive) in each case.

`COc1ccccc1N1C(=O)CSC1c1c[nH]c2ccccc12` (stereo not drawn): the GI50 is > 100 µM (inactive) in the experiment on SK-MEL-5; 42.8 µM (inactive) in the experiment with SF-268; > 100 µM (inactive) with 786-0; greater than 100 µM in the experiment with HCT-15; > 100 µM (inactive) in the experiment on IGROV-1; > 100 µM (inactive) in the experiment with SN12C. Moreover, the GI50 in the experiment with MDA-MB-435, in the experiment on K562, with T47D, in the experiment on BT-549, in the experiment with NCI-H460 and in the experiment on NCI/ADR-RES was > 100 µM (inactive) each time. Besides, the GI50 with SW-620, with DU-145, in the experiment on UACC-62, in the experiment on A498 and with A549 was > 100 µM (inactive) throughout.

The record behind these values is ChEMBL document CHEMBL1201862, “PubChem BioAssay data set” (2004).
